# Test results: patent publication US11382956B2, “Amylin analogues” (Zealand Pharma A/S, priority 2016, dated 2022)
# Numbered stars: 1 amine (or outer) side, 2 acyl side, 3 side chain; on linkers, the order of the positions; unused ones are H or OH. Bridge positions count the residues as written; N and C are the ends. Square brackets hold non-standard residues; d marks the D form. Peptide text beside a SMILES is read from it. * marks the point of attachment. C20 diacid = O=C(O)CCCCCCCCCCCCCCCCCCC(=O)*; γGlu = O=C(O)[C@H](CCC(=O)[*:2])N[*:1]; Hyp = O=C(O)[C@@H]1C[C@@H](O)CN1; NMeI = CC[C@H](C)[C@H](NC)C(=O)O; Aad = N[C@@H](CCCC(=O)O)C(=O)O; Orn = NCCC[C@H](N)C(=O)O; Sar = CNCC(=O)O
# Assays:
# [1] = target: T1, recombinant human calcitonin receptor (hCT-R) (Homo sapiens, UniProt P30988); assay: hCT-R cAMP assay (AlphaScreen) in 1321N1 cells; assay type: cell-based; details: cAMP formation, 45 min stimulation
# T1 construct: host or cells: human astrocytoma cell line 1321N1
# T1 sequence (P30988 25-474): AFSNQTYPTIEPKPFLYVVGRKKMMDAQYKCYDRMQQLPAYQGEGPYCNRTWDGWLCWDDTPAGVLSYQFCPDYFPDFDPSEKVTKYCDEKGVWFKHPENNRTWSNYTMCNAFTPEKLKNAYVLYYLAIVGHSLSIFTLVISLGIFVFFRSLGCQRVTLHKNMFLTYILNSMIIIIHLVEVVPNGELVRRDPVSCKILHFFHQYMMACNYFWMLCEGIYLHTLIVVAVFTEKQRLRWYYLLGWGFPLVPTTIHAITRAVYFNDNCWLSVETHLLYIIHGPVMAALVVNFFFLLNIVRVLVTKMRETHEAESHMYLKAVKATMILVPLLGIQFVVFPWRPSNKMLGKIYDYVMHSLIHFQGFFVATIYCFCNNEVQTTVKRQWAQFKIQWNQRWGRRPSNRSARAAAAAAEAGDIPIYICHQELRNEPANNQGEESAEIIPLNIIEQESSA
# Method in brief: (§1)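 EC50 values come from curve fits over at least 7 peptide concentrations, with cAMP read by AlphaScreen competition after 1 h in the dark. Cells were 1321N1 lines carrying human calcitonin receptor, with RAMP3 co-expressed for AMY3, treated 45 min at room temperature in the presence of IBMX.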
# [2] = target: T2, recombinant human amylin 3 receptor (hAMYR3) (Homo sapiens, UniProt O60896+P30988); assay: hAMYR3 cAMP assay (AlphaScreen) in 1321N1 cells; assay type: cell-based; details: cAMP formation, 45 min stimulation
# T2 construct: host or cells: human astrocytoma cell line 1321N1
# T2 sequence (P30988 25-474): T1 sequence (P30988 25-474)
# T2 sequence (O60896 24-148 partner): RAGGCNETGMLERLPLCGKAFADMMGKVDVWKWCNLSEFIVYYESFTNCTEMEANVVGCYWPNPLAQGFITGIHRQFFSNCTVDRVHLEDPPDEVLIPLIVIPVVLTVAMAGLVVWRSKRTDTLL
# Method in brief: as §1
# [3] = Assessment of physical stability: fibril formation by Thioflavin T fluorescence; assay type: physicochemical; set-up: key: FND = fibrillation not detected; FD = fibrillation detected; details: 1 mg/mL peptide; for Fibrillation (in buffer) pH4 acetate: 50 mM acetate buffer pH 4.0, 96 hours at 40° C.; for Fibrillation (in buffer) pH7 histidine: 50 mM histidine buffer pH 7.0, 96 hours at 40° C.; for Fibrillation (in buffer) pH7 phosphate: 50 mM phosphate buffer pH 7.0, 96 hours at 40° C.
# Method in brief: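 Fibrillation detected (FD) means a significant rise in ThT fluorescence over 96 hours at 40° C, read at 10 min intervals each preceded by 300 s automixing. Samples: 1 mg/mL peptide, 40 μM ThT, in 50 mM phosphate or histidine (pH 7.0) or acetate (pH 4.0), triplicate.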
# [4] = Assessment of chemical stability in 40 mM buffers at 40° C. (RP-HPLC); assay type: physicochemical; details: 1 mg/mL; for % degradation after 72 h at 40° C. pH7 phosphate: phosphate buffer pH 7, 72 h; for % degradation after 72 h at 40° C. pH4 acetate: acetate buffer pH 4, 72 h; for % degradation after 72 h at 40° C. pH6 phosphate: phosphate buffer pH 6, 72 h
# Method in brief: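 Degradation is the main-peak area-% at each time point minus that at t=0, measured by C8 reversed-phase HPLC (TFA/acetonitrile/water gradient, 220 nm). Incubation at 40° C for 3 or 14 days, 1 mg/mL peptide in 40 mM buffer at pH 4, 6 or 7.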
Compound,EC50 [1],EC50 [2],Fibrillation (in buffer) pH4 acetate [3],Fibrillation (in buffer) pH7 histidine [3],Fibrillation (in buffer) pH7 phosphate [3],% degradation after 72 h at 40° C. pH7 phosphate [4],% degradation after 72 h at 40° C. pH4 acetate [4],% degradation after 72 h at 40° C. pH6 phosphate [4],"% degradation after 14 days at 40° C. pH4 acetate ([4]; acetate buffer pH 4, 14 days)","% degradation after 14 days at 40° C. pH6 phosphate ([4]; phosphate buffer pH 6, 14 days)","% degradation after 14 days at 40° C. pH7 phosphate ([4]; phosphate buffer pH 7, 14 days)"
"CC[C@H](C)[C@@H](C(=O)N[C@@H](CC(C)C)C(=O)N[C@@H](CO)C(=O)N[C@@H](CO)C(=O)N[C@H](C(=O)N[C@@H](CCC(=O)O)C(=O)N[C@H](C(=O)NCC(=O)N[C@@H](CO)C(=O)N[C@@H](CC(N)=O)C(=O)N[C@H](C(=O)N1C[C@H](O)C[C@H]1C(N)=O)[C@@H](C)O)C(C)C)[C@@H](C)O)N(C)C(=O)[C@H](C)NC(=O)CN(C)C(=O)[C@H](Cc1ccccc1)NC(=O)[C@@H](NC(=O)[C@H](C)NC(=O)[C@H](CCCNC(=N)N)NC(=O)[C@H](CCC(N)=O)NC(=O)[C@H](CC(C)C)NC(=O)[C@H](Cc1ccccc1)NC(=O)[C@H](CCCC(=O)O)NC(=O)[C@H](C)NC(=O)[C@H](CC(C)C)NC(=O)[C@H](CCCNC(=N)N)NC(=O)[C@H](CCC(=O)O)NC(=O)[C@@H](NC(=O)[C@H](C)NC(=O)[C@@H]1CCCNC(=O)C[C@H](NC(=O)[C@H](CCCNC(=N)N)NC(=O)CC[C@H](NC(=O)CCCCCCCCCCCCCCCCCCC(=O)O)C(=O)O)C(=O)NCC(=O)N[C@@H]([C@@H](C)O)C(=O)N[C@@H](C)C(=O)N[C@@H]([C@@H](C)O)C(=O)N1)[C@@H](C)O)[C@@H](C)O [Compound 25, [19CD]-isoGlu-RD()GTAT-Orn()-ATERLA-Aad-FLQRATF-Gly(Me)-A-Ile(Me)-LSSTEVGSNT-Hyp-NH2] ({C20 diacid-γGlu}-RDGTAT[Orn]ATERLA[Aad]FLQRATF[Sar]A[NMeI]LSSTEVGSNT[Hyp]-NH2; lactam 2-7)",0.844 nM,0.336 nM,FND,FND,FND,<1%,–,–,–,–,–
"CC[C@H](C)[C@@H](C(=O)N[C@@H](CC(C)C)C(=O)N[C@@H](CO)C(=O)N[C@@H](CO)C(=O)N[C@H](C(=O)N[C@@H](CCC(=O)O)C(=O)N[C@H](C(=O)NCC(=O)N[C@@H](CO)C(=O)N[C@@H](CC(N)=O)C(=O)N[C@H](C(=O)N1C[C@H](O)C[C@H]1C(N)=O)[C@@H](C)O)C(C)C)[C@@H](C)O)N(C)C(=O)[C@H](C)NC(=O)CN(C)C(=O)[C@H](Cc1ccccc1)NC(=O)[C@@H](NC(=O)CNC(=O)[C@H](CCCNC(=N)N)NC(=O)[C@H](CCC(N)=O)NC(=O)[C@H](CC(C)C)NC(=O)[C@H](Cc1ccccc1)NC(=O)[C@H](CCCC(=O)O)NC(=O)[C@H](C)NC(=O)[C@H](CC(C)C)NC(=O)[C@H](CCCNC(=N)N)NC(=O)[C@H](CCC(=O)O)NC(=O)[C@@H](NC(=O)[C@H](C)NC(=O)[C@@H]1CCCNC(=O)C[C@H](NC(=O)[C@H](CCCNC(=N)N)NC(=O)CC[C@H](NC(=O)CCCCCCCCCCCCCCCCCCC(=O)O)C(=O)O)C(=O)NCC(=O)N[C@@H]([C@@H](C)O)C(=O)N[C@@H](C)C(=O)N[C@@H]([C@@H](C)O)C(=O)N1)[C@@H](C)O)[C@@H](C)O [Compound 27, [19CD]-isoGlu-RD()GTAT-Orn()-ATERLA-Aad-FLQRGTF-Gly(Me)-A-Ile(Me)-LSSTEVGSNT-Hyp-NH2] ({C20 diacid-γGlu}-RDGTAT[Orn]ATERLA[Aad]FLQRGTF[Sar]A[NMeI]LSSTEVGSNT[Hyp]-NH2; lactam 2-7)",0.521 nM,0.325 nM,FND,FND,FND,1.7%,<1%,<1%,–,–,–
"CC[C@H](C)[C@@H](C(=O)N[C@@H](CC(C)C)C(=O)N[C@@H](CO)C(=O)N[C@@H](CO)C(=O)N[C@H](C(=O)N[C@@H](CCC(=O)O)C(=O)N[C@H](C(=O)NCC(=O)N[C@@H](CO)C(=O)N[C@@H](CC(N)=O)C(=O)N[C@H](C(=O)N1C[C@H](O)C[C@H]1C(N)=O)[C@@H](C)O)C(C)C)[C@@H](C)O)N(C)C(=O)[C@H](C)NC(=O)CN(C)C(=O)[C@H](Cc1ccccc1)NC(=O)CNC(=O)CNC(=O)[C@H](CCCNC(=N)N)NC(=O)[C@H](CCC(N)=O)NC(=O)[C@H](CC(C)C)NC(=O)[C@H](Cc1ccccc1)NC(=O)[C@H](CCCC(=O)O)NC(=O)[C@H](C)NC(=O)[C@H](CC(C)C)NC(=O)[C@H](CCCNC(=N)N)NC(=O)[C@H](CCC(=O)O)NC(=O)[C@@H](NC(=O)[C@H](C)NC(=O)[C@@H]1CCCCNC(=O)C[C@H](NC(=O)[C@H](CCCNC(=N)N)NC(=O)CC[C@H](NC(=O)CCCCCCCCCCCCCCCCCCC(=O)O)C(=O)O)C(=O)NCC(=O)N[C@@H]([C@@H](C)O)C(=O)N[C@@H](C)C(=O)N[C@@H]([C@@H](C)O)C(=O)N1)[C@@H](C)O [Compound 32, [19CD]-isoGlu-RD()GTATK()ATERLA-Aad-FLQRGGF-Gly(Me)-A-Ile(Me)-LSSTEVGSNT-Hyp-NH2] ({C20 diacid-γGlu}-RDGTATKATERLA[Aad]FLQRGGF[Sar]A[NMeI]LSSTEVGSNT[Hyp]-NH2; lactam 2-7)",0.006 nM,0.005 nM,FD,FND,FND,2.2%,1.3%,<1%,<1%,<1%,<1%
"CC[C@H](C)[C@@H](C(=O)N[C@@H](CC(C)C)C(=O)N[C@@H](CO)C(=O)N[C@@H](CO)C(=O)N[C@H](C(=O)N[C@@H](CCC(=O)O)C(=O)N[C@H](C(=O)NCC(=O)N[C@@H](CO)C(=O)N[C@@H](CC(N)=O)C(=O)N[C@H](C(=O)N1C[C@H](O)C[C@H]1C(N)=O)[C@@H](C)O)C(C)C)[C@@H](C)O)N(C)C(=O)[C@H](C)NC(=O)CN(C)C(=O)[C@H](Cc1ccccc1)NC(=O)[C@H](CC(N)=O)NC(=O)[C@H](C)NC(=O)[C@H](CCCNC(=N)N)NC(=O)[C@H](CCC(N)=O)NC(=O)[C@H](CC(C)C)NC(=O)[C@H](Cc1ccccc1)NC(=O)[C@H](CCCC(=O)O)NC(=O)[C@H](C)NC(=O)[C@H](CC(C)C)NC(=O)[C@H](CCCNC(=N)N)NC(=O)[C@H](CCC(=O)O)NC(=O)[C@@H](NC(=O)[C@H](C)NC(=O)[C@@H]1CCCCNC(=O)C[C@H](NC(=O)[C@H](CCCNC(=N)N)NC(=O)CC[C@H](NC(=O)CCCCCCCCCCCCCCCCCCC(=O)O)C(=O)O)C(=O)NCC(=O)N[C@@H]([C@@H](C)O)C(=O)N[C@@H](C)C(=O)N[C@@H]([C@@H](C)O)C(=O)N1)[C@@H](C)O [Compound 33, [19CD]-isoGlu-RD()GTATK()ATERLA-Aad-FLQRANF-Gly(Me)-A-Ile(Me)-LSSTEVGSNT-Hyp-NH2] ({C20 diacid-γGlu}-RDGTATKATERLA[Aad]FLQRANF[Sar]A[NMeI]LSSTEVGSNT[Hyp]-NH2; lactam 2-7)",0.019 nM,0.009 nM,FND,FND,FND,<1%,<1%,1%,–,–,–
